Source: PMC5362750, “Discovery of Potent, Selective, and Orally Bioavailable Small-Molecule Modulators of the Mediator Complex-Associated Kinases CDK8 and CDK19” (Journal of Medicinal Chemistry, 2016)

What was measured:
cMET (D1246H) = cMET (D1246H) (Homo sapiens, UniProt P08581, D1228H); conditions: 1 µM, ATP at Km
RET(V804L) = RET(V804L) (Homo sapiens, UniProt P07949, V804L); conditions: 1 µM, ATP at Km
in vivo = conditions: female, NMRI, mouse, po, 0.5 mg/kg
RSK4 = target: T1, RSK4 (Homo sapiens, UniProt Q9UK32); experiment: Kinase panel (Millipore); type: biochemical; conditions: 1 µM, ATP at Km
T1 construct: purchased Millipore (KinaseProfiler) kinase panel

PKCZETA = target: T2, PKCZETA (Homo sapiens, UniProt Q05513); experiment: Kinase panel (Millipore); type: biochemical; conditions: 1 µM, ATP at Km
T2 construct: purchased Millipore (KinaseProfiler) kinase panel

In vivo mouse PK = conditions: female, NMRI, plasma, iv, 0.2 mg/kg
EPHA2 = EPHA2 (Homo sapiens, UniProt P29317); experiment: Kinase panel (Millipore); type: biochemical; conditions: 1 µM, ATP at Km
Sequence of EPHA2 (P29317 24-976): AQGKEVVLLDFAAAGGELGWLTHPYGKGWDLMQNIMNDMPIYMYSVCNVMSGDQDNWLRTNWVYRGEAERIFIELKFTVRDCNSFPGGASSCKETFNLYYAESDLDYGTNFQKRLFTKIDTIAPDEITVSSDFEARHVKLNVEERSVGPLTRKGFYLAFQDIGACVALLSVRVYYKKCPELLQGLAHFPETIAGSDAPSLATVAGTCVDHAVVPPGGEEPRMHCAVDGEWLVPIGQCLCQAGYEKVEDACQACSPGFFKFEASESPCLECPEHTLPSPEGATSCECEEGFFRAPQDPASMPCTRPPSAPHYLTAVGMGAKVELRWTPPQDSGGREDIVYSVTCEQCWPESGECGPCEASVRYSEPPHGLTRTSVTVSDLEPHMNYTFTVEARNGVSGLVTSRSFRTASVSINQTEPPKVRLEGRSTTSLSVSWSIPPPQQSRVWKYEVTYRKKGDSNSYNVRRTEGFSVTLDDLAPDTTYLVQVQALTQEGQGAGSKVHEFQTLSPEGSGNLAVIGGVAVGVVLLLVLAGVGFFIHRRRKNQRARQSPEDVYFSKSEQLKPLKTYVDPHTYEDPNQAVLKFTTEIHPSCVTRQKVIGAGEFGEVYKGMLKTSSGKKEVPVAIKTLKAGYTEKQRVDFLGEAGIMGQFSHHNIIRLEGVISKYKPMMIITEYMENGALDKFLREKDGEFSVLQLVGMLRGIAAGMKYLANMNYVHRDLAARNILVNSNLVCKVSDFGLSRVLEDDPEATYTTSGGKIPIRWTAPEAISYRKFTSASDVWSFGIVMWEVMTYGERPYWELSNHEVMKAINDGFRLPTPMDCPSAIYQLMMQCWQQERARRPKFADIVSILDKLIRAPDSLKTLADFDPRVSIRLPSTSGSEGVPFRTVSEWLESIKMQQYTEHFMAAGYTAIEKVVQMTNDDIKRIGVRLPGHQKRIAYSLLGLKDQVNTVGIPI

[1] = system: glycine (strychnine-insensitive); conditions: 10 µM, antagonist radioligand
CAMKI = CAMKI (Homo sapiens, UniProt Q14012); experiment: Kinase panel (Millipore); type: biochemical; conditions: 1 µM, ATP at Km
PKCDELTA = PKCDELTA (Homo sapiens, UniProt Q05655); experiment: Kinase panel (Millipore); type: biochemical; conditions: 1 µM, ATP at Km
MER = target: T3, MER (Homo sapiens, UniProt Q12866); experiment: Kinase panel (Millipore); type: biochemical; conditions: 1 µM, ATP at Km
T3 construct: purchased Millipore (KinaseProfiler) kinase panel

PAF (h) = target: T4, PAF (h) (Homo sapiens, UniProt P25105); experiment: CEREP binding assay; conditions: agonist radioligand, read-out: % Inhibition of Control Specific Binding
T4 construct: purchased Millipore (KinaseProfiler) kinase panel

IGF-1R, ACTIVATED = target: T5, IGF-1R, ACTIVATED (Homo sapiens, UniProt P08069); experiment: Kinase panel (Millipore); type: biochemical; conditions: 1 µM, ATP at Km
T5 construct: purchased Millipore (KinaseProfiler) kinase panel

CK1GAMMA2 = CK1GAMMA2 (Homo sapiens, UniProt P78368); experiment: Kinase panel (Millipore); type: biochemical; conditions: 1 µM, ATP at Km
Sequence of CK1GAMMA2 (P78368 whole entry): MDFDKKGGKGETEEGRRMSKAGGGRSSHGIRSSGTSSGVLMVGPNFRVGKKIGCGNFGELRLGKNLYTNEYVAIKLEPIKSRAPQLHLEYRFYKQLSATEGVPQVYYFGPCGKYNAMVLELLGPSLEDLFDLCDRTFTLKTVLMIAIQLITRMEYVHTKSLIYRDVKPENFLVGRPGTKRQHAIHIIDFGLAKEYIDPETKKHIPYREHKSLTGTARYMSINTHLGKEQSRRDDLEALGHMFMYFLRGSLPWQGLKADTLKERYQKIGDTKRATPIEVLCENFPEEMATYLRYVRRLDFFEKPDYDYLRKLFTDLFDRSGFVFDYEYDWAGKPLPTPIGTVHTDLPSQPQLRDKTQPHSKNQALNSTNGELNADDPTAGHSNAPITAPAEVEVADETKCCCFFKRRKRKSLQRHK

TSSK1 = target: T6, TSSK1 (Homo sapiens, UniProt Q9BXA7); experiment: Kinase panel (Millipore); type: biochemical; conditions: 1 µM, ATP at Km
T6 construct: purchased Millipore (KinaseProfiler) kinase panel

BTK = BTK (Homo sapiens, UniProt Q06187); experiment: Kinase panel (Millipore); type: biochemical; conditions: 1 µM, ATP at Km
D2S (h) = D2S (h) (Homo sapiens, UniProt P14416); experiment: biochemical; conditions: read-out: % Inhibition of Control Specific Binding
ULK3 = target: T7, ULK3 (Homo sapiens, UniProt Q6PHR2); experiment: Kinase panel (Millipore); type: biochemical; conditions: 1 µM, ATP at Km
T7 construct: purchased Millipore (KinaseProfiler) kinase panel

FMS = target: T8, FMS (Homo sapiens, UniProt P07333); experiment: Kinase panel (Millipore); type: biochemical; conditions: 1 µM, ATP at Km
T8 construct: purchased Millipore (KinaseProfiler) kinase panel

PKA = PKA (Homo sapiens, UniProt P17612); experiment: Kinase panel (Millipore); type: biochemical; conditions: 1 µM, ATP at Km
TRKA = target: T9, TRKA (Homo sapiens, UniProt P04629); experiment: Kinase panel (Millipore); type: biochemical; conditions: 1 µM, ATP at Km
T9 construct: purchased Millipore (KinaseProfiler) kinase panel

SNK = target: T10, SNK (Homo sapiens, UniProt Q9NYY3); experiment: Kinase panel (Millipore); type: biochemical; conditions: 1 µM, ATP at Km
T10 construct: purchased Millipore (KinaseProfiler) kinase panel
T10 sequence (Q9NYY3 whole entry): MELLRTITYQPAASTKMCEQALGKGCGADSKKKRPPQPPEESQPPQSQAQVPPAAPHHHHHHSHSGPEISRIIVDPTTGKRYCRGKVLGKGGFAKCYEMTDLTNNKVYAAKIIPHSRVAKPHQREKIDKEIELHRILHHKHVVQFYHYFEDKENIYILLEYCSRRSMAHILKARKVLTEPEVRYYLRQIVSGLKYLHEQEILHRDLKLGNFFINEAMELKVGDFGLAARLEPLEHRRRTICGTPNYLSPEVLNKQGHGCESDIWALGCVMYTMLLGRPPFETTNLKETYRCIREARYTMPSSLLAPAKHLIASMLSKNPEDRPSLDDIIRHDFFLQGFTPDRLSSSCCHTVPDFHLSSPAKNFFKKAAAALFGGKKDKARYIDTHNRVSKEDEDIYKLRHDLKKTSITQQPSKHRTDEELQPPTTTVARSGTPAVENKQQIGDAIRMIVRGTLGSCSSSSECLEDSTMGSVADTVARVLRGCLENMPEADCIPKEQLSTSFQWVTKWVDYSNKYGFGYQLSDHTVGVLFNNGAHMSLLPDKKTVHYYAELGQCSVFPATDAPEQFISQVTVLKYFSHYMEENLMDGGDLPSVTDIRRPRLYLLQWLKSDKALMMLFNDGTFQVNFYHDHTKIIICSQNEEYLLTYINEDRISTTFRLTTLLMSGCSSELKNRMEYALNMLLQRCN

alpha 2A (h) = alpha 2A (h) (Homo sapiens, UniProt P08913); experiment: biochemical; conditions: read-out: % Inhibition of Control Specific Binding
Sequence of alpha 2A (h) (P08913 whole entry): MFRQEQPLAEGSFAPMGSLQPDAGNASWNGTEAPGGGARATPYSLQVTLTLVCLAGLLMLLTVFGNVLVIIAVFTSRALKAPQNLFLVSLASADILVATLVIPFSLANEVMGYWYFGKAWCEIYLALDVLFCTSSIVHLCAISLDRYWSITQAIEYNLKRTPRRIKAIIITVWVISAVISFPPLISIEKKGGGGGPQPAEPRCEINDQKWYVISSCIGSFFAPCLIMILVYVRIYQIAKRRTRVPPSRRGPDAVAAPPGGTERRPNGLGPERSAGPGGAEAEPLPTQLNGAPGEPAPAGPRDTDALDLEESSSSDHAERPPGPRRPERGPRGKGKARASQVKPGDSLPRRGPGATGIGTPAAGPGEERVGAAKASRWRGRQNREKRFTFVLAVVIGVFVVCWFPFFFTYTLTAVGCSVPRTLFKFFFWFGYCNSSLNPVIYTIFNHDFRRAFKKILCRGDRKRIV

ITK = target: T11, ITK (Homo sapiens, UniProt Q08881); experiment: Kinase panel (Millipore); type: biochemical; conditions: 1 µM, ATP at Km
T11 construct: purchased Millipore (KinaseProfiler) kinase panel

GSK3ALPHA = GSK3ALPHA (Homo sapiens, UniProt P49840); experiment: Kinase panel (Millipore); type: biochemical; conditions: 1 µM, ATP at Km
UT (h) = target: T12, UT (h) (Homo sapiens, UniProt Q9UKP6); experiment: CEREP binding assay; conditions: agonist radioligand, read-out: % Inhibition of Control Specific Binding
T12 construct: CEREP

LYN = LYN (Homo sapiens, UniProt P07948); experiment: Kinase panel (Millipore); type: biochemical; conditions: 1 µM, ATP at Km
Sequence of LYN (P07948 whole entry): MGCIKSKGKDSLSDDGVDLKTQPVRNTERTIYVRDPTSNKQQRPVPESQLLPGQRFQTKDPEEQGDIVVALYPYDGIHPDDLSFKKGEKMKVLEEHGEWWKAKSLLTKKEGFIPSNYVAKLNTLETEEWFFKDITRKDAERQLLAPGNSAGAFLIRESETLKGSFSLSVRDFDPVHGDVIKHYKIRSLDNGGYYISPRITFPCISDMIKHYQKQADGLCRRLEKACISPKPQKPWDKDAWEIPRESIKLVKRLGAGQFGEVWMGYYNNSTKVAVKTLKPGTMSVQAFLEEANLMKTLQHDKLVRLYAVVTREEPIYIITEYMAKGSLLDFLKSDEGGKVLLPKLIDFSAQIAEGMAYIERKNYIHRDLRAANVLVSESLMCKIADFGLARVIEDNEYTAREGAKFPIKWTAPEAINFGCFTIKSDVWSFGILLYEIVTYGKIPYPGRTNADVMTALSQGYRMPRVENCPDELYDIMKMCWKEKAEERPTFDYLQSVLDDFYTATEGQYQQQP

ALK = target: T13, ALK (Homo sapiens, UniProt Q9UM73); experiment: Kinase panel (Millipore); type: biochemical; conditions: 1 µM, ATP at Km
T13 construct: purchased Millipore (KinaseProfiler) kinase panel

ABL (M351T) = ABL (M351T) (Homo sapiens, UniProt P00519, M351T); conditions: 1 µM, ATP at Km
AURKA = AURKA (Homo sapiens, UniProt O14965); experiment: Kinase panel (Millipore); type: biochemical; conditions: 1 µM, ATP at Km
BTK(R28H) = BTK(R28H) (Homo sapiens, UniProt Q06187, R28H); conditions: 1 µM, ATP at Km
HCK = HCK (Homo sapiens, UniProt P08631); experiment: Kinase panel (Millipore); type: biochemical; conditions: 1 µM, ATP at Km
DCAMKL2 = target: T14, DCAMKL2 (Homo sapiens, UniProt Q8N568); experiment: Kinase panel (Millipore); type: biochemical; conditions: 1 µM, ATP at Km
T14 construct: purchased Millipore (KinaseProfiler) kinase panel

[…](D842V) = […](D842V) (Homo sapiens, UniProt P16234, D842V); conditions: 1 µM, ATP at Km
Sequence of […](D842V) (P16234 24-1089 D842V): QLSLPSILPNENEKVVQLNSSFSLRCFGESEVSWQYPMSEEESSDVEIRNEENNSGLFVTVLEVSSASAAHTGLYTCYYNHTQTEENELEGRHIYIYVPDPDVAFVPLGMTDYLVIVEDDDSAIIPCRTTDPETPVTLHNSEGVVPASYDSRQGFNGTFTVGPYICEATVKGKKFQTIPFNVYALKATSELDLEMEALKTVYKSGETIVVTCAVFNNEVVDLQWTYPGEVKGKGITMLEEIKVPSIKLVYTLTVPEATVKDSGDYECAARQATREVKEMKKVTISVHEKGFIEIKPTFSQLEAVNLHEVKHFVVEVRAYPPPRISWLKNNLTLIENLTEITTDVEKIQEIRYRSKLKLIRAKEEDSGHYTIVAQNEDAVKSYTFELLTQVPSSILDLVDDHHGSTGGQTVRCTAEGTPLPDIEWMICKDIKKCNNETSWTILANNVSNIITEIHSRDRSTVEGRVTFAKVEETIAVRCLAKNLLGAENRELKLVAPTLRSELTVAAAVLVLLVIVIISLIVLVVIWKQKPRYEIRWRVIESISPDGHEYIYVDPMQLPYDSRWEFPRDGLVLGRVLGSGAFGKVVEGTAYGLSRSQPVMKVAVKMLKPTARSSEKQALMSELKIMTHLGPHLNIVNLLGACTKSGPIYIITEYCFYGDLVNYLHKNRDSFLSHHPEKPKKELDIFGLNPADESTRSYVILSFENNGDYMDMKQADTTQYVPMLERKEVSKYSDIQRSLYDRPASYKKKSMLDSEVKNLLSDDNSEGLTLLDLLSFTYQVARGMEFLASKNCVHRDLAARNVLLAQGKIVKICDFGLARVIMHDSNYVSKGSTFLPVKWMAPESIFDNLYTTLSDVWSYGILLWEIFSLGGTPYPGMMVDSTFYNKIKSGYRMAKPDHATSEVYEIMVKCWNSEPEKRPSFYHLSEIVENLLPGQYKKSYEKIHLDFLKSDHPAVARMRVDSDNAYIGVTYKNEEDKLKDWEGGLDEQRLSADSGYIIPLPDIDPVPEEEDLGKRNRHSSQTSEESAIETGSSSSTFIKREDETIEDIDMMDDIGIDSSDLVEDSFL

JNK2ALPHA2 = JNK2ALPHA2 (Homo sapiens, UniProt P45984); experiment: Kinase panel (Millipore); type: biochemical; conditions: 1 µM, ATP at Km
SRPK2 = target: T15, SRPK2 (Homo sapiens, UniProt P78362); experiment: Kinase panel (Millipore); type: biochemical; conditions: 1 µM, ATP at Km
T15 construct: purchased Millipore (KinaseProfiler) kinase panel

RY3 (ryanodine) = conditions: 10 µM, agonist radioligand
IGF-1R = target: T16, IGF-1R (Homo sapiens, UniProt P08069); experiment: Kinase panel (Millipore); type: biochemical; conditions: 1 µM, ATP at Km
T16 construct: purchased Millipore (KinaseProfiler) kinase panel

ERalpha (h) = ERalpha (h) (Homo sapiens, UniProt P03372); experiment: CEREP binding assay; conditions: agonist fluoligand, read-out: % Inhibition of Control Specific Binding
BB3 (h) = target: T17, BB3 (h) (Homo sapiens, UniProt P32247); experiment: CEREP binding assay; conditions: agonist radioligand, read-out: % Inhibition of Control Specific Binding
T17 construct: purchased Millipore (KinaseProfiler) kinase panel
T17 sequence (P32247 whole entry): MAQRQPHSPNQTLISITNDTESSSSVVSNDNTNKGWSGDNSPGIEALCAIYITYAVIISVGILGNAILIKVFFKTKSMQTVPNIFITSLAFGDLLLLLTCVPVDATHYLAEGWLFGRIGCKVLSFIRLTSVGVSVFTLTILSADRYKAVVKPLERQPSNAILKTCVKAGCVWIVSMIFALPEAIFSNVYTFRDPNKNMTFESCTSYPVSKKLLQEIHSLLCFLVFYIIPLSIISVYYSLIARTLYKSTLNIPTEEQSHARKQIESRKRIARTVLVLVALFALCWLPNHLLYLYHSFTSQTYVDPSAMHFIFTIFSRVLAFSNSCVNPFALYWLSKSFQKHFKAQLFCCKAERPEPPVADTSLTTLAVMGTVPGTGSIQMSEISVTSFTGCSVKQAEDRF

CysLT1 (LTD4) (h) = target: T18, CysLT1 (LTD4) (h) (Homo sapiens, UniProt Q9Y271); experiment: CEREP binding assay; conditions: agonist radioligand, read-out: % Inhibition of Control Specific Binding
T18 construct: purchased Millipore (KinaseProfiler) kinase panel

MINK = target: T19, MINK (Homo sapiens, UniProt Q8N4C8); experiment: Kinase panel (Millipore); type: biochemical; conditions: 1 µM, ATP at Km
T19 construct: purchased Millipore (KinaseProfiler) kinase panel

Sequence of RET(V804L) (P07949 658-1114 V804L limits assumed): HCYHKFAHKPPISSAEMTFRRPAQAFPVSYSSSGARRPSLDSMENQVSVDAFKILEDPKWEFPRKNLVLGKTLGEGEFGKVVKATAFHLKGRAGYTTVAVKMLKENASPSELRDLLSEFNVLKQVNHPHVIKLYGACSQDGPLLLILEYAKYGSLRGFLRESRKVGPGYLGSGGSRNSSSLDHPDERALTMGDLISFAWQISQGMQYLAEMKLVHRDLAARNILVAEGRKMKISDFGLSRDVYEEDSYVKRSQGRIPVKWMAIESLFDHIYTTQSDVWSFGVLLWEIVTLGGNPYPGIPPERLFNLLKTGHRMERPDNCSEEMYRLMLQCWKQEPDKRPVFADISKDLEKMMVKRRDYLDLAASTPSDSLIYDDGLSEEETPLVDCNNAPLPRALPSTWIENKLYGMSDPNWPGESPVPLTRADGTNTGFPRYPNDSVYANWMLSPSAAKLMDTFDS

Cn1ncc2cc(-c3cnc(N)c(Cl)c3N3CCC4(CCNC4=O)CC3)ccc21 [Compound 109, 8-(2-Amino-3-chloro-5-(1-methyl-1H-indazol-5-yl)pyridin-4-yl)-2,8-diazaspiro[4.5]decan-1-one]
% effect (cMET (D1246H)): -8% | % effect (RET(V804L)): -7% | bioavailability (in vivo): 30% | % effect (RSK4): -6% | % effect (PKCZETA): 1% | Vd (In vivo mouse PK): 0.63 L/kg | clearance (In vivo mouse PK; Cl, 0.2 mg/kg iv): 10.2 mL/min/kg | % effect (EPHA2): 5% | % Inhibition of Control Specific Binding [1]: -3% | % effect (CAMKI): -3% | % effect (PKCDELTA): 6% | % effect (MER): 11% | inhibition at 10 µM (PAF (h)): -4% | % effect (IGF-1R, ACTIVATED): 1% | % effect (CK1GAMMA2): 5% | % effect (TSSK1): -7% | % effect (BTK): 6% | inhibition at 10 µM (D2S (h)): -5% | % effect (ULK3): -21% | % effect (FMS): -23% | % effect (PKA): 25% | % effect (TRKA): 2% | % effect (SNK): 11% | inhibition at 10 µM (alpha 2A (h)): 11% | % effect (ITK): -9% | % effect (GSK3ALPHA): -18% | inhibition at 10 µM (UT (h)): 33% | % effect (LYN): -3% | % effect (ALK): 4% | % effect (ABL (M351T)): -11% | % effect (AURKA): -16% | % effect (BTK(R28H)): 2% | % effect (HCK): -4% | % effect (DCAMKL2): -3% | % effect ([…](D842V)): -10% | % effect (JNK2ALPHA2): -5% | % effect (SRPK2): 4% | % Inhibition of Control Specific Binding (RY3 (ryanodine)): 1% | % effect (IGF-1R): -26% | inhibition at 10 µM (ERalpha (h)): 0% | inhibition at 10 µM (BB3 (h)): -11% | inhibition at 10 µM (CysLT1 (LTD4) (h)): 12% | % effect (MINK): 22%
